From patent publication US20260232767A1, “INTERLEUKIN-23 RECEPTOR ANTAGONIST PEPTIDES FOR USE IN THE TREATMENT OF PSORIASIS” (Janssen Pharmaceutica NV, priority 2023, published 2026)
Read-outs that look alike come from different tables or passages of the source.

Experiment: Plasma concentrations (PK), Example 1
Format: in vivo, human
Protocol: For QD dosing, peak concentration was defined as any PK sample taken between 0.25 to <6 hours after the last morning dose and trough concentration was at least 20 hours after the last morning dose. For BID dosing, peak concentration was defined as any PK sample taken between 0.25 to <4 hours after the last dose and trough concentration was at least 8 hours after the last dose.

Question: For `CC(=O)NCCCC[C@@H]1NC(=O)[C@H](Cc2c[nH]c3c(C)cccc23)NC(=O)[C@H]([C@@H](C)O)NC(=O)[C@H](CC(N)=O)NC(=O)[C@@H](NC(C)=O)C(C)(C)SSC(C)(C)[C@@H](C(=O)N[C@@H](Cc2ccc(OCCN)cc2)C(=O)N[C@@H](Cc2ccc3ccccc3c2)C(=O)NC2(C(=O)N[C@@H](CCC(=O)O)C(=O)N[C@@H](CC(N)=O)C(=O)N[C@@H](Cc3cccnc3)C(=O)N(C)CC(N)=O)CCOCC2)NC1=O` [IL-23 receptor antagonist peptide, Ac-[Pen]*-N-T-[W(7-Me)]-[Lys(Ac)]-[Pen]*-Phe[4-(2-aminoethoxy)]-[2-Nal]-[THP]-E-N-[3-Pal]-Sarc-NH2 (*[Pen]-[Pen]* formdisulfidebond)], which “Number of subjects with plasma concentration below LLOQ” value (shortened to “Number of subjects”) (25 mg BID, Week 2, Intermediate) is on record?
Answer: 0

Question: What about the “Number of subjects” value (25 mg BID, Week 2, Peak) of the same molecule?
Answer: 0

Question: And the “Number of subjects” value (25 mg BID, Week 2, Trough)?
Answer: 1 (100.0%)

Question: And the “Number of subjects” value (25 mg BID, Week 4, Intermediate)?
Answer: 0

Question: What about the “Number of subjects” value (25 mg BID, Week 4, Peak) of the same molecule?
Answer: 0

Question: What about the “Number of subjects” value (25 mg BID, Week 4, Trough) of the same molecule?
Answer: 1 (100.0%)

Question: What about the “Number of subjects” value (25 mg BID, Week 8, Intermediate) of the same molecule?
Answer: 0

Question: And the “Number of subjects” value (25 mg BID, Week 8, Peak)?
Answer: 1 (50.0%)

Question: What about the “Number of subjects” value (25 mg BID, Week 8, Trough) of the same molecule?
Answer: 2 (100.0%)

Question: And the “Number of subjects” value (25 mg BID, Week 12, Intermediate)?
Answer: 0

Question: And the “Number of subjects” value (25 mg BID, Week 12, Peak)?
Answer: 0

Question: What about the “Number of subjects” value (25 mg BID, Week 12, Trough) of the same molecule?
Answer: 2 (100.0%)

Question: And the “Number of subjects” value (25 mg BID, Week 16, Intermediate)?
Answer: 0

Question: What about the “Number of subjects” value (25 mg BID, Week 16, Peak) of the same molecule?
Answer: 0

Question: What about the “Plasma concentration, Median” value (25 mg BID, Week 16, Peak) of the same molecule?
Answer: 0.796 ng/mL

Question: What about the “Number of subjects” value (25 mg BID, Week 16, Trough) of the same molecule?
Answer: 1 (100.0%)

Question: And the “Plasma concentration, Median” value (25 mg BID, Week 16, Trough)?
Answer: 0.134 ng/mL

Question: And the “Number of subjects” value (25 mg QD, Week 1, Intermediate)?
Answer: 0

Question: And the “Number of subjects” value (25 mg QD, Week 1, Peak)?
Answer: 0

Question: What about the “Number of subjects” value (25 mg QD, Week 1, Trough, LLOQ 0.02 ng/mL) of the same molecule?
Answer: 3 (100.0%)

Question: What about the “Number of subjects” value (25 mg QD, Week 2, Intermediate) of the same molecule?
Answer: 0

Question: And the “Number of subjects” value (25 mg QD, Week 2, Peak)?
Answer: 3 (100.0%)

Question: And the “Number of subjects” value (25 mg QD, Week 2, Trough)?
Answer: 0

Question: What about the “Number of subjects” value (25 mg QD, Week 4, Intermediate) of the same molecule?
Answer: 0

Question: And the “Number of subjects” value (25 mg QD, Week 4, Peak)?
Answer: 0

Question: What about the “Number of subjects” value (25 mg QD, Week 4, Trough) of the same molecule?
Answer: 3 (100.0%)

Question: And the “Number of subjects” value (25 mg QD, Week 8, Intermediate)?
Answer: 0

Question: And the “Number of subjects” value (25 mg QD, Week 8, Peak)?
Answer: 0)

Question: And the “Number of subjects” value (25 mg QD, Week 8, Trough)?
Answer: 2 (100.0%)

Question: What about the “Number of subjects” value (25 mg QD, Week 12, Intermediate) of the same molecule?
Answer: 0

Question: And the “Number of subjects” value (25 mg QD, Week 12, Peak)?
Answer: 0

Question: And the “Number of subjects” value (25 mg QD, Week 12, Trough)?
Answer: 6

Question: What about the “Number of subjects” value (25 mg QD, Week 16, Intermediate) of the same molecule?
Answer: 0

Question: What about the “Number of subjects” value (25 mg QD, Week 16, Peak) of the same molecule?
Answer: 2

Question: And the “Plasma concentration, Median” value (25 mg QD, Week 16, Peak)?
Answer: 0.295 ng/mL

Question: What about the “Number of subjects” value (25 mg QD, Week 16, Trough) of the same molecule?
Answer: 2

Question: What about the “Plasma concentration, Median” value (25 mg QD, Week 16, Trough) of the same molecule?
Answer: 0.057 ng/mL

Question: And the “Number of subjects” value (50 mg QD, Week 2, Intermediate)?
Answer: 0

Question: What about the “Number of subjects” value (50 mg QD, Week 2, Peak) of the same molecule?
Answer: 1 (100.0%)

Question: And the “Number of subjects” value (50 mg QD, Week 2, Trough)?
Answer: 0

Question: And the “Number of subjects” value (50 mg QD, Week 12, Intermediate)?
Answer: 0

Question: What about the “Number of subjects” value (50 mg QD, Week 12, Peak) of the same molecule?
Answer: 0

Question: And the “Number of subjects” value (50 mg QD, Week 12, Trough)?
Answer: 2 (100.0%)

Question: And the “Number of subjects” value (50 mg QD, Week 16, Intermediate)?
Answer: 0

Question: And the “Number of subjects” value (50 mg QD, Week 16, Peak)?
Answer: 0

Question: What about the “Plasma concentration, Median” value (50 mg QD, Week 16, Peak) of the same molecule?
Answer: 0.917 ng/mL

Question: What about the “Number of subjects” value (50 mg QD, Week 16, Trough) of the same molecule?
Answer: 3 (100.0%)

Question: What about the “Plasma concentration, Median” value (50 mg QD, Week 16, Trough) of the same molecule?
Answer: 0.089 ng/mL

Question: And the “Number of subjects” value (100 mg BID, Week 16, Intermediate)?
Answer: 0

Question: What about the “Number of subjects” value (100 mg BID, Week 16, Peak) of the same molecule?
Answer: 0

Question: What about the “Plasma concentration, Median” value (100 mg BID, Week 16, Peak) of the same molecule?
Answer: 1.970 ng/mL

Question: And the “Number of subjects” value (100 mg BID, Week 16, Trough)?
Answer: 1 (100.0%)

Question: And the “Plasma concentration, Median” value (100 mg BID, Week 16, Trough)?
Answer: 0.451 ng/mL

Question: And the “Number of subjects” value (100 mg QD, Week 12, Intermediate)?
Answer: 1 (33.3%)

Question: And the “Number of subjects” value (100 mg QD, Week 12, Peak)?
Answer: 1 (33.3%)

Question: What about the “Number of subjects” value (100 mg QD, Week 12, Trough) of the same molecule?
Answer: 1 (33.3%)

Question: What about the “Number of subjects” value (100 mg QD, Week 16, Intermediate) of the same molecule?
Answer: 1 (33.3%)

Question: And the “Number of subjects” value (100 mg QD, Week 16, Peak)?
Answer: 0

Question: And the “Plasma concentration, Median” value (100 mg QD, Week 16, Peak)?
Answer: 1.165 ng/mL

Question: What about the “Number of subjects” value (100 mg QD, Week 16, Trough) of the same molecule?
Answer: 2 (66.7%)

Question: What about the “Plasma concentration, Median” value (100 mg QD, Week 16, Trough) of the same molecule?
Answer: 0.132 ng/mL

Question: And the “Effect of body weight on systemic exposure” value (baseline body weight subgroups, through Week 16)?
Answer: not consistently evident that body weight has a major impact on systemic exposure

Question: What about the “Drug accumulation (median trough concentrations)” value (between Week 1 and 16) of the same molecule?
Answer: no apparent drug accumulation

Question: What about the level at 672 h (human, plasma, oral, 25 mg, 25 mg BID, Week 4, Peak, read-out: Plasma concentration, Geometric Mean) of the same molecule?
Answer: 0.539 ng/mL

Question: And the level at 672 h (human, plasma, oral, 25 mg, 25 mg BID, Week 4, Peak, read-out: Plasma concentration, Mean)?
Answer: 0.655 ng/mL

Question: What about the level at 672 h (human, plasma, oral, 25 mg, 25 mg BID, Week 4, Peak, read-out: Plasma concentration, Median) of the same molecule?
Answer: 0.52 ng/mL

Question: What about the level at 1344 h (human, plasma, oral, 25 mg, 25 mg BID, Week 8, Intermediate, read-out: Plasma concentration, Geometric Mean) of the same molecule?
Answer: 0.092 ng/mL

Question: What about the level at 1344 h (human, plasma, oral, 25 mg, 25 mg BID, Week 8, Intermediate, read-out: Plasma concentration, Mean) of the same molecule?
Answer: 0.092 ng/mL

Question: And the level at 1344 h (human, plasma, oral, 25 mg, 25 mg BID, Week 8, Intermediate, read-out: Plasma concentration, Median)?
Answer: 0.092 ng/mL

Question: And the level at 1344 h (human, plasma, oral, 25 mg, 25 mg BID, Week 8, Peak, read-out: Plasma concentration, Geometric Mean)?
Answer: 0.483 ng/mL

Question: What about the level at 1344 h (human, plasma, oral, 25 mg, 25 mg BID, Week 8, Peak, read-out: Plasma concentration, Mean) of the same molecule?
Answer: 0.672 ng/mL

Question: What about the level at 1344 h (human, plasma, oral, 25 mg, 25 mg BID, Week 8, Peak, read-out: Plasma concentration, Median) of the same molecule?
Answer: 0.545 ng/mL

Question: And the level at 1344 h (human, plasma, oral, 25 mg, 25 mg BID, Week 8, Trough, read-out: Plasma concentration, Geometric Mean)?
Answer: 0.151 ng/mL

Question: What about the level at 1344 h (human, plasma, oral, 25 mg, 25 mg BID, Week 8, Trough, read-out: Plasma concentration, Mean) of the same molecule?
Answer: 0.184 ng/mL

Question: And the level at 1344 h (human, plasma, oral, 25 mg, 25 mg BID, Week 8, Trough, read-out: Plasma concentration, Median)?
Answer: 0.143 ng/mL

Question: And the level at 2016 h (human, plasma, oral, 25 mg, 25 mg BID, Week 12, Trough, read-out: Plasma concentration, Mean)?
Answer: 0.202 ng/mL

Question: What about the level at 672 h (human, plasma, oral, 25 mg, 25 mg QD, Week 4, Peak, read-out: Plasma concentration, Geometric Mean) of the same molecule?
Answer: 0.469 ng/mL

Question: And the level at 672 h (human, plasma, oral, 25 mg, 25 mg QD, Week 4, Peak, read-out: Plasma concentration, Mean)?
Answer: 0.591 ng/mL

Question: What about the level at 672 h (human, plasma, oral, 25 mg, 25 mg QD, Week 4, Peak, read-out: Plasma concentration, Median) of the same molecule?
Answer: 0.425 ng/mL

Question: What about the level at 1344 h (human, plasma, oral, 25 mg, 25 mg QD, Week 8, Intermediate, read-out: Plasma concentration, Geometric Mean) of the same molecule?
Answer: 0.168 ng/mL

Question: What about the level at 1344 h (human, plasma, oral, 25 mg, 25 mg QD, Week 8, Intermediate, read-out: Plasma concentration, Mean) of the same molecule?
Answer: 0.211 ng/mL

Question: And the level at 1344 h (human, plasma, oral, 25 mg, 25 mg QD, Week 8, Intermediate, read-out: Plasma concentration, Median)?
Answer: 0.177 ng/mL

Question: And the level at 1344 h (human, plasma, oral, 25 mg, 25 mg QD, Week 8, Peak, read-out: Plasma concentration, Geometric Mean)?
Answer: 0.284 ng/mL

Question: And the level at 1344 h (human, plasma, oral, 25 mg, 25 mg QD, Week 8, Peak, read-out: Plasma concentration, Mean)?
Answer: 0.443 ng/mL

Question: What about the level at 1344 h (human, plasma, oral, 25 mg, 25 mg QD, Week 8, Peak, read-out: Plasma concentration, Median) of the same molecule?
Answer: 0.325 ng/mL

Question: What about the level at 1344 h (human, plasma, oral, 25 mg, 25 mg QD, Week 8, Trough, read-out: Plasma concentration, Geometric Mean) of the same molecule?
Answer: 0.061 ng/mL

Question: What about the level at 1344 h (human, plasma, oral, 25 mg, 25 mg QD, Week 8, Trough, read-out: Plasma concentration, Mean) of the same molecule?
Answer: 0.068 ng/mL
